# How the values were obtained:
# [1] = Acute toxicity, oral, in mice (Miller and Tainter); conditions: mouse, in vivo, read-out: Acute toxicity LD 50
# Procedure: The acute toxicity is determined orally on mice according to the method described by MILLER and TAINTER in Proc. Soc. Exp. Biol. Med. 57, 261 (1944).
# [2] = system: A type monoamine oxidase; assay: Ex vivo monoamine oxidase inhibition in rat brain homogenate, serotonine substrate; parameters: unit not given here; conditions: rats, 5 mg/kg p.o.; for Monoamine oxidase inhibition effect, A Type monoamine oxidase, 8 hours: 8 hours after administration; for Monoamine oxidase inhibition effect, A Type monoamine oxidase, 24 hours: 24 hours after administration; for Monoamine oxidase inhibition effect, A Type monoamine oxidase, max.: maximum effect observed between 30 minutes and 8 hours
# Procedure: (§1) This activity has been shown ex vivo on rats to which are orally administered the compounds employed in the invention as a 0.5% suspension in methylcellulose. Then the rats are decapitated at various times (30 mn, 1 hour, 2 hours, 4 hours, 8 hours and 24 hours after the administration). The brains are taken up, weighed and homogeneized and the determination of the monoamine oxidase inhibition effect is carried out by using serotonine (specific substrate of the A type monoamine oxidase) and phenylethylamine (specific substrate of B type monoamine oxidase) according to the method described by J. P. KAN and M. STROLIN-BENEDETTI in Life Sciences 26, 2165 (1980).
# (§2) To illustrate the invention, in table below the results thus obtained are given. (The maximum effect is that observed between 30 minutes and 8 hours).
# [3] = system: B type monoamine oxidase; assay: Ex vivo monoamine oxidase inhibition in rat brain homogenate, phenylethylamine substrate; parameters: unit not given here; conditions: rats, 5 mg/kg p.o.; for Monoamine oxidase inhibition effect, B Type monoamine oxidase, 8 hours: 8 hours after administration; for Monoamine oxidase inhibition effect, B Type monoamine oxidase, 24 hours: 24 hours after administration; for Monoamine oxidase inhibition effect, B Type monoamine oxidase, max.: maximum effect observed between 30 minutes and 8 hours
# Procedure: as §1, §2
SMILES,LD50 [1],"Monoamine oxidase inhibition effect, A Type monoamine oxidase, 8 hours [2]","Monoamine oxidase inhibition effect, A Type monoamine oxidase, 24 hours [2]","Monoamine oxidase inhibition effect, A Type monoamine oxidase, max. [2]","Monoamine oxidase inhibition effect, B Type monoamine oxidase, 8 hours [3]","Monoamine oxidase inhibition effect, B Type monoamine oxidase, 24 hours [3]","Monoamine oxidase inhibition effect, B Type monoamine oxidase, max. [3]"
"CC(C)CCOc1ccc(N2CC(CN)OC2=O)cc1 (stereo not shown) [3-methylbutyl, amino]",> 2000 mg/kg,2,0,29,8,1,69
"CNCC1CN(c2ccc(OCc3ccccc3)cc2)C(=O)O1 (stereo not shown) [benzyl, N--methylamino]",> 2000 mg/kg,11,10,23,43,31,78
"NCC1CN(c2ccc(OCc3ccccc3)cc2)C(=O)O1 (stereo not shown) [benzyl, amino]",> 2000 mg/kg,4,4,19,69,45,85
"CNCC1CN(c2ccc(OCC3CCCCC3)cc2)C(=O)O1 (stereo not shown) [cyclohexylmethyl, N--methylamino]",> 2000 mg/kg,17,6,21,42,6,67
"NCC1CN(c2ccc(OCC3CCCCC3)cc2)C(=O)O1 (stereo not shown) [cyclohexylmethyl, amino]",> 2000 mg/kg,13,5,23,60,3,81
"NCC1CN(c2ccc(OCC3CCCC3)cc2)C(=O)O1 (stereo not shown) [cyclopentylmethyl, amino]",> 2000 mg/kg,9,0,30,17,2,78
"CNCC1CN(c2ccc(OCc3cccc(Cl)c3)cc2)C(=O)O1 (stereo not shown) [m-chlorobenzyl, N--methylamino]",> 2000 mg/kg,12,1,28,67,27,83
"NCC1CN(c2ccc(OCc3cccc(Cl)c3)cc2)C(=O)O1 (stereo not shown) [m-chlorobenzyl, amino]",> 2000 mg/kg,18,6,30,85,67,88
"CNCC1CN(c2ccc(OCc3ccc(F)cc3)cc2)C(=O)O1 (stereo not shown) [p-fluorobenzyl, N--methylamino]",> 2000 mg/kg,23,0,44,63,27,85
"NCC1CN(c2ccc(OCc3ccc(F)cc3)cc2)C(=O)O1 (stereo not shown) [p-fluorobenzyl, amino]",> 2000 mg/kg,20,3,43,82,61,88

# — US4470993A, “Therapeutical use of known 5-aminomethyl oxazolidine-2-one derivatives” (Delalande S.A., priority 1982, dated 1984)
